According to BindingDB's records for PubMed 10604951 (University of Colorado, 2000):

Target: Glutamate receptor ionotropic, NMDA 1 (Rattus norvegicus, UniProt P35439)

Structure (SMILES) | Ki [µM]
NC(=O)N1c2ccccc2C=Cc2ccccc21 [5H-dibenzo[b,f]azepine-5-carboxamide] | > 10
COC(=O)c1cc(NC(=O)N(c2ccccc2)c2ccccc2)c2c(Cl)cc(Cl)cc2n1 [DCUK-Ome] | > 10
O=C(O)c1cc(NC(=O)N(c2ccccc2)c2ccccc2)c2c(Cl)cc(Cl)cc2n1 [DCUKA] | > 10
